# PubChem BioAssay (NCI)
#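 Exposure lasted 48 hours, with cells grown in 96-well plates and compounds tested at five concentrations. Here, GI50 denotes the concentration required for 50% inhibition of growth. TGI marks complete inhibition of growth.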
# Experiments:
# Experiment in all cases: inhibition of tumour cell growth, NCI panel, 48 h
# NCI-H226 lung = tested on: NCI-H226 lung
# U251 CNS = tested on: U251 CNS
# TK-10 renal = tested on: TK-10 renal
# HCT-15 colon = tested on: HCT-15 colon
# ACHN renal = tested on: ACHN renal
# T-47D breast = tested on: T-47D breast
# SK-OV-3 ovarian = tested on: SK-OV-3 ovarian
# UACC-257 melanoma = tested on: UACC-257 melanoma
# OVCAR-8 ovarian = tested on: OVCAR-8 ovarian
# SK-MEL-2 melanoma = tested on: SK-MEL-2 melanoma
Structure (SMILES),GI50 (NCI-H226 lung) [µM],TGI (NCI-H226 lung) [µM],GI50 (U251 CNS) [µM],TGI (U251 CNS) [µM],GI50 (TK-10 renal) [µM],TGI (TK-10 renal) [µM],GI50 (HCT-15 colon) [µM],TGI (HCT-15 colon) [µM],GI50 (ACHN renal) [µM],TGI (ACHN renal) [µM],GI50 (T-47D breast) [µM],TGI (T-47D breast) [µM],GI50 (SK-OV-3 ovarian) [µM],TGI (SK-OV-3 ovarian) [µM],GI50 (UACC-257 melanoma) [µM],TGI (UACC-257 melanoma) [µM],GI50 (OVCAR-8 ovarian) [µM],TGI (OVCAR-8 ovarian) [µM],GI50 (SK-MEL-2 melanoma) [µM],TGI (SK-MEL-2 melanoma) [µM]
O=C(NCCN1CCOCC1)Nc1ccc(-c2cc3c(Nc4ccc(Oc5cccc(C(F)(F)F)c5)c(Cl)c4)ncnc3s2)cc1,3.18,17.1,0.769,2.43,2.78,9.08,0.95,1.92,1.74,6.06,1.07,3.21,1.88,7.49,0.927,1.84,2.4,9.88,1.25,2.98
COc1cc(C2CC(c3ccc4c(c3)OCO4)=NN2C(C)=O)cc(OC)c1OC (stereo not given),13.5,> 100,0.899,> 100,7.59,> 100,0.584,> 100,3.66,> 100,1.44,> 64.8,0.972,> 65.8,> 35.2,> 100,5.51,> 100,> 100,> 100
O=C(O)C(Br)C(Br)c1ccccc1[N+](=O)[O-] (stereo not given),–,> 100,–,> 100,–,> 100,–,> 100,–,> 100,–,> 100,–,> 100,–,> 100,–,> 100,–,> 100
CCCCCCNC(=O)Oc1ccc(/C(=C(\C)c2ccccc2)c2ccc(OCCN3CCCCC3)cc2)cc1,5.91,21.4,1.81,3.81,7.85,21.4,1.53,3.52,2.85,10.9,1.14,4.87,5.05,19.3,2.69,9.16,2.14,5.94,2,4.33
COc1cccc(Cn2cc3c(c2)-c2oncc2CC3)c1,2.72,> 100,0.386,35.8,0.803,> 100,0.401,> 38.1,0.876,> 100,0.246,6.38,0.361,6.03,4.13,> 79.7,0.622,> 69.3,–,–
COc1ccc(C2C(c3ccccc3)C(=O)N2c2cc(OC)c(OC)c(OC)c2)cc1I (stereo not given),15.6,> 100,0.388,> 100,> 100,> 100,0.339,> 100,–,–,> 100,> 100,0.395,> 100,> 100,> 100,0.407,> 100,0.572,> 100
Oc1ccc(/C=N/Nc2nc3ccccc3s2)c(O)c1,3.56,65.9,1.72,> 100,2.1,45.2,0.734,20.6,1.11,9.89,3.37,> 100,2.14,8.93,2.79,14.2,1.65,> 100,–,–
CN1CCN(Cc2ccc(NC(=O)c3[nH]ncc3Nc3ncnc4sccc34)cc2)CC1,0.169,> 100,0.242,> 100,2.16,19.6,0.254,> 100,0.223,0.791,0.699,> 100,–,–,2.12,> 100,0.413,> 100,0.368,2.26
Cc1[nH]nc2c1N=C(c1ccccc1F)c1cc(C#N)ccc1N2,0.322,4.11,0.215,4.64,1.91,8.73,–,–,0.326,5.37,1.36,> 15.2,0.889,> 17,9.71,> 25,3.38,12.3,2.39,8.81
Oc1ccc(Br)cc1/C=N/NC(=S)NC12CC3CC(CC(C3)C1)C2,1.95,4.8,1.32,2.71,–,–,0.734,3.49,2.08,10.3,2.15,8.33,3.54,11.9,2.11,6.96,1.6,4.4,2.09,4.59
COc1ccc(NC(=O)Nc2ccc(Nc3nc(C)cc(Nc4ccc(C)cc4)n3)cc2)cc1,–,–,1.72,3.21,1.68,3.06,1.63,3.29,1.75,3.13,1.78,4.24,2.46,6.59,1.89,3.69,–,–,1.85,3.57
NS(=O)(=O)c1ccc(NC(=O)CC(=O)Nc2ccc(S(N)(=O)=O)cc2)cc1,–,> 100,–,> 100,–,> 100,–,> 100,–,> 100,–,–,–,> 100,–,> 100,–,> 100,–,> 100
CCOC(=O)C1=C(NC(C)(C)C)OCC1=O,–,> 100,–,> 100,–,> 100,–,> 100,–,> 100,–,–,–,> 100,–,> 100,–,> 100,–,> 100
CCOC(=O)c1cc2cc(NC(=O)c3cc4cc([N+](=O)[O-])ccc4n3C)ccc2n1C,12,46.6,14.1,30.9,19.7,70.7,15.4,51.6,13.5,31.9,42,> 100,–,–,46.6,> 100,49.5,> 100,> 100,> 100
